Legend:
[1] = Solubility and stability of TM salts; conditions: other salts of TM
Text: Thus, other salts have been prepared and evaluated for solubility, stability and anticopper activity.

[2] = In vitro copper complexing studies; conditions: compared with ammonium salt of TM
hAPP tg mice = conditions: pharmacologic treatment of hAPP tg mice; cited from earlier work
[3] = test system: Wilson's disease patients; conditions: cited from earlier work
bleomycin mouse model = conditions: in vivo; cited from earlier work
[4] = test system: Wilson's disease patients; conditions: at cupruresis of 2-3 mg
Experimental: Ingestion of copper is about 1 mg/day, with obligatory, non-urine losses of about 0.5 mg.

cancer patients = conditions: cited from earlier work
[5] = therapeutic dose 1,000-2,000 mg/day

CCC[N+](CCC)(CCC)CCC.CCC[N+](CCC)(CCC)CCC.[S]=[Mo](=[S])([S-])[S-] [TPTM, tetrapropyl tetrathiomolybdate]
solubility in water [1]: suitable solubility in water
in vitro copper complexing [2]: behave similarly to ammonium salt of TM

C[N+](C)(C)CCO.C[N+](C)(C)CCO.[SH-].[SH-].[S]=[Mo]=[S] [choline TM]
in vitro copper complexing [2]: behave similarly to ammonium salt of TM

Oc1c(I)cc(Cl)c2cccnc12 [clioquinol]
amyloid pathology (hAPP tg mice): prevented

CC(C)Cc1ccc(C(C)C(=O)O)cc1 (centres unmarked) [ibuprofen]
amyloid pathology (hAPP tg mice): prevented

CC(C)(S)[C@@H](N)C(=O)O [penicillamine]
patients developing initial hypersensitivity syndrome ([3]; human, in vivo): about a quarter to a third of patients

Cc1ccc(=O)n(-c2ccccc2)c1 [perfenidone]
efficacy in the bleomycin mouse model (bleomycin mouse model): effective in the bleomycin mouse model

CC[N+](CC)(CC)CC.CC[N+](CC)(CC)CC.[S]=[Mo](=[S])([S-])[S-] [tetraethyl TM]
solubility in water [1]: suitable solubility in water
in vitro copper complexing [2]: behave similarly to ammonium salt of TM

NCCNCCNCCN [trientine]
negative copper balance [4]: 1.5 to 2.5 mg/day
patients with proteinuria ([3]; after several weeks of use): about 20%
cupruresis after the first few weeks of therapy [3, 5]: 2 to 3 mg
cupruresis, initial [3, 5]: 4 to 5 mg

CC(=O)[O-].CC(=O)[O-].[Zn+2] [zinc, zinc acetate]
copper balance induced ([3]; Wilson's patients, average): −0.35 mg daily
time to achieve intestinal metallothionein induction and a negative copper balance ([3]; Wilson's patients): approximately two
time to bring urine copper and nonceruloplasmin plasma copper down to subtoxic levels ([3]; zinc therapy): six

bleomycin
patients developing pulmonary fibrosis (cancer patients): about 3%
